What all share (assay type): physicochemical
Series [1] is described as follows: Particle size distribution by MASTERSIZER 2000 laser light scattering. An excerpt: The particle size distribution plots of the drawings were obtained using a MASTERSIZER™ 2000 laser light scattering instrument sold by Malvern Instruments Ltd. of Malvern, Worcestershire, United Kingdom. In the plots, values in the vertical axis represent a volume percentage of particles and the horizontal axis is a logarithmic scale of particle sizes, in μm units.

A short description of series [2]: Bulk density and tapped bulk density, Test Method 616 of United States Pharmacopeia 24. Conditions: for tapped bulk density: after tapping.
Series [3] can be described thus: Storage of polymorphic forms under ambient conditions, form checked by XRPD. Conditions: for polymorphic form after storage (XRPD pattern): ambient conditions; for polymorphic form stability upon storage: storage at ambient temperatures. The source says:
The various forms of tadalafil are characterized by their XRPD patterns, which differ between polymorpic forms. All XRPD results reported herein were obtained using Cu Kα radiation, having the wavelength 1.541 Å. The XRPD patterns of the figures have a vertical axis that is intensity units, and a horizontal axis that is degrees 2θ.

Experimental findings from US8063214B2, “Polymorphic forms of tadalafil” (Dr. Reddy's Laboratories Limited, priority 2004, dated 2011) are described below.

In the case of `CN1CC(=O)N2[C@H](c3ccc4c(c3)OCO4)c3[nH]c4ccccc4c3C[C@@H]2C1=O` [Example 1, tadalafil], in series [1], the “diameters of 10 volume percent of the particles” value is “less than 31 μm”, the “diameters of 50 volume percent of the particles” value is “less than 104 μm” and the “diameters of 90 volume percent of the particles” value is “less than 321 μm”. In series [2], this compound had a bulk density of 0.344 g/mL and a tapped bulk density of 0.666 g/mL.

For the compound `CN1CC(=O)N2[C@H](c3ccc4c(c3)OCO4)c3[nH]c4ccccc4c3C[C@@H]2C1=O` [Example 11, tadalafil], in series [1], the “diameters of 10 volume percent of the particles” value is “less than 9.9 μm”, the “diameters of 50 volume percent of the particles” value is reported as “less than 40 μm” and the “diameters of 90 volume percent of the particles” value is recorded as “less than 148 μm”. Further, in series [2], the bulk density stood at 0.181 g/mL and the tapped bulk density came out at 0.434 g/mL.

Turning to `CN1CC(=O)N2[C@H](c3ccc4c(c3)OCO4)c3[nH]c4ccccc4c3C[C@@H]2C1=O` [Example 15, tadalafil], in series [1], the “diameters of 10 volume percent of the particles” value was “less than 58 μm”, the “diameters of 50 volume percent of the particles” value is “less than 193 μm” and the “diameters of 90 volume percent of the particles” value is given as “less than 428 μm”. Moreover, in series [2], the bulk density stood at 0.435 g/mL and the tapped bulk density came out at 0.626 g/mL.

Consider `CN1CC(=O)N2[C@H](c3ccc4c(c3)OCO4)c3[nH]c4ccccc4c3C[C@@H]2C1=O` [Example 21, tadalafil], for which, in series [3] (sealed polyethylene bag, 3 to 4 days), the “polymorphic form after storage (XRPD pattern)” value is “conversion of the tadalafil Form B into Form A”. Also, the “polymorphic form stability upon storage” value in series [3] (listed as mixtures of Form A and Form B) is “will convert to only Form A”.

Consider `CN1CC(=O)N2[C@H](c3ccc4c(c3)OCO4)c3[nH]c4ccccc4c3C[C@@H]2C1=O` [Tadalafil Form B, tadalafil], for which the “polymorphic form after storage (XRPD pattern)” value in series [3] (sealed in a polyethylene bag, 40 hours) is “conversion of the tadalafil Form B into Form A”. Further, the “polymorphic form stability upon storage” value in series [3] is on record as “spontaneously converts to Form A”.
